These results are taken from patent publication US20250195510A1, “NOVEL METHODS” (priority 2022, published 2025).

The series relates to patients with schizophrenia. Put plainly: Phase 3 clinical trial in schizophrenia with acute exacerbation of psychosis. The class given is in vivo, human. As to conditions: 60 mg or 40 mg lumateperone tosylate once daily for 28 days vs placebo. As for the experimental part:
A randomized, double-blind, placebo-controlled, phase 3 clinical trial was conducted with 450 patients with schizophrenia, aged 18 to 60 years, who were experiencing an acute exacerbation of psychosis. Patients were included if they were experiencing an acute exacerbation of psychosis, defined as a total score on the Brief Psychiatric Rating Scale of […] or higher, with a score of 4 or higher on 2 or more positive symptoms, and onset of the acute episode within 4 weeks of screening. Patients were required to have a score of 4 or higher, indicating moderate to severe disease severity, on the Clinical Global Impression-Severity of Illness (CGI-S) at screening and baseline. […]
The primary efficacy end point was mean change from baseline to day 28 in the Positive and Negative Syndrome Scale (PANSS) total score versus placebo. […] The PANSS subscale scores, social function, safety, and tolerability were also assessed. Primary and key secondary efficacy measures were assessed weekly. Safety was assessed by treatment-emergent adverse events (TEAEs), modified physical examinations, 12-lead electrocardiograms (ECGs), vital signs, and clinical laboratory tests (blood and urine samples for clinical laboratory analysis were collected from all subjects upon screening and on Days 1, 8, 28, and 33, following overnight fast).

For the compound `CN1CCN2c3c(cccc31)[C@@H]1CN(CCCC(=O)c3ccc(F)cc3)CC[C@@H]12` [Lumateperone, 4-((6bR,10aS)-3-methyl-2,3,6b,9,10,10a-hexahydro-1H-pyrido[3′,4′: 4,5]pyrrolo[1,2,3-de]quinoxaline-8 (7H)-yl)-1-(4-fluorophenyl)-1-butanone], the “efficacy on symptoms of schizophrenia (PANSS total score, CGI-S)” value is recorded as “effective for improving the symptoms of schizophrenia”; the safety and tolerability result is on record as “favorable safety profile”.
